Results as given in patent publication US5595763A (priority 1995, dated 1997).

Legend:
[1] = system: rat treated neonatally with low doses of streptozocin; conditions: in vivo
diabetic rats = conditions: treated diabetic rats, experiments run in parallel

[Na+].[Na+].[O]=[W](=[O])([O-])[O-] [sodium tungstate]
survival [1]: all animals survived | mortality (diabetic rats): about 10%
